{"source": "patent US11116851B2", "about": "“Anti-cancer and anti-inflammatory therapeutics and methods thereof” (University of Massachusetts, priority 2015, dated 2021)", "key": {"PC3 cells [1]": {"tested_on": "PC3 cells", "test": "PC3 cell proliferation with Tet-inducible IBS or DKK3 constructs", "format": "cell-based", "conditions": "limited antibiotic induction of Tet-inducible construct", "description": "The relationship between IBS and the Wnt/β-catenin signaling pathway was defined by cell proliferation, promoter-driven reporter assays, and cell migration analysis. Limited antibiotic induction of Tet-inducible IBS or DKK3 constructs was used to avoid the untoward effects of over-expression. […] (Veeck et al. 2012 Biochim Biophys Acta 1825, 18-28; Hsieh et al. 2004 Oncogene 23, 9183-9189; Abarzua et al 2005 Cancer Res 65, 9617-9622; Edamura et al. 2007 Cancer Gene Ther 14, 765-772.)"}, "[2]": {"biological_target": "native, unphosphorylated β-catenin (UniProt P35222)", "sequence (P35222 2-781 limits assumed)": "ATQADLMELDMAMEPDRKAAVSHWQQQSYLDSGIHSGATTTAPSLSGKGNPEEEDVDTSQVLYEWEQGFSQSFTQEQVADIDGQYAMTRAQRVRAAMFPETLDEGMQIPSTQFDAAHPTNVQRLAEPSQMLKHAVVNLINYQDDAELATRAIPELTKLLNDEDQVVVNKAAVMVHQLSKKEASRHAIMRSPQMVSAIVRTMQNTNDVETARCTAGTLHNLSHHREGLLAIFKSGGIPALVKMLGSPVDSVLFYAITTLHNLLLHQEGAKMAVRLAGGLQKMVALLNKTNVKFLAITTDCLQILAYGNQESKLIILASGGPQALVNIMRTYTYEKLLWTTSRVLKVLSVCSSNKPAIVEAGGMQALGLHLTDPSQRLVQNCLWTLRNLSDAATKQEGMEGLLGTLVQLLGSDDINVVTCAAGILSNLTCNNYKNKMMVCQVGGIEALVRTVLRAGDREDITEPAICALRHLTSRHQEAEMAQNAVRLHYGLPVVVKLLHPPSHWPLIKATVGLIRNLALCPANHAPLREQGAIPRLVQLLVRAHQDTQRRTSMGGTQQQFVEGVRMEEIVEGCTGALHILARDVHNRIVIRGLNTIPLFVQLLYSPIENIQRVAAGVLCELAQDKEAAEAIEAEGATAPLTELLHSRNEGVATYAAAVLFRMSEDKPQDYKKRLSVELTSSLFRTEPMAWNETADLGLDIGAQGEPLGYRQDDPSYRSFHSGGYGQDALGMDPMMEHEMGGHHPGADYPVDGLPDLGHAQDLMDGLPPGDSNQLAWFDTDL", "test": "cell-based or functional assay"}, "Cleaved Caspase 3": {"tested_on": "Cleaved Caspase 3", "test": "Cleaved Caspase 3 in PC3 cells", "format": "cell-based", "protocol": "(§1) Over-expression of DKK3 in cancer cells initiates c-Jun Kinase (JNK) mediated apoptosis. (Abarzua et al. 2005 Cancer Res 65, 9617-9622; Kawasaki et al. 2009 Cancer Gene Ther 16, 65-72.) IBS and the JNK inhibitor, TAT-JBD were introduced into PC3 cells as TAT-fusion protein and peptide, respectively, and cell proliferation was measured after 3 days. […] Pro-apoptotic levels of cleaved Caspase 3 increased in TAT-IBS treated cells and this increase was blocked by inhibition of JNK activity (FIG. 8d). […] (Veeck et al. 2012 Biochim Biophys Acta 1825, 18-28; Abarzua et al. 2005 Cancer Res 65, 9617-9622.)"}, "[3]": {"conditions": "in vivo", "description": "(§2) Delivery of this intracellular tumor suppressor to the cytoplasm of the cancer cell is essential to achieve the cancer cell growth arrest and apoptosis. First attempts were made by fusing a variant of the cell penetrating peptide-TAT."}, "HEK293 cells": {"tested_on": "HEK293 cells", "test": "Basal and Wnt stimulated proliferation of HEK293 cells", "format": "cell-based", "conditions": "HEK293, highest concentration tested", "description": "The impact of IBS on basal and Wnt stimulated cell proliferation was then examined in immortalized HEK293 cells (FIG. 9a). […] The more robust silencing by TAT-IBS is likely due to the universal delivery of this regulator to the cell monolayer."}, "NF-κB (p65)": {"tested_on": "NF-κB (p65)", "test": "NF-κB (p65)-responsive promoter luciferase reporter in HEK293 cells", "format": "cell-based", "conditions": "HEK293 cells stimulated by Wnt-1 transfection", "description": "(§3) FIG. 23. TAT-IBS antagonizes primary and secondary β-catenin and NF-κB-dependent gene expression. A) TAT-IBS blocks an NF-κB (p65)-responsive promoter driving luciferase reporter in HEK293 cells that was stimulated by Wnt-1 transfection (shaded bars). […] C) (Data previously disclosed in UMMC 12-40PR2). TAT-IBS restores E-Cadherin (CDH1)-promoter activity in Wnt-1 stimulated cells (middle chart). TopFlash and E2F-luciferase reporters are dependent on β-TrCP substrates, β-catenin and E2F, respectively (top and bottom charts). TAT-IBS blocks transcriptional activation by Wnt-1 stimulation of both reporters. DKK3b fused to an N-terminal cell penetrating peptide, a protein construct we refer to as TAT-IBS (a.k.a. cpIBS), regulates the activity of promoter elements that depend upon the nuclear translocation of β-TrCP target substrates (FIG. 23) as determined by promoter-luciferase reporter assays. Wnt-1 stimulates transcription regulated by NF-κB (FIG. 23A), β-catenin, and E2F (FIG. 23 C) transcription factor proteins. TAT-IBS treatment blocks this Wnt-1-induced stimulation. In contrast, Wnt-1 down-regulates transcription from promoter elements of two biomarkers of epithelial cellular differentiation, E-cadherin (FIG. 23C) and Elf3 (FIG. 23B). TAT-IBS treatment blocks Wnt-1-induced repression of these two epithelial gene transcripts."}, "β-catenin": {"tested_on": "β-catenin", "test": "Tcf-luciferase promoter reporter assay", "format": "cell-based", "conditions": "Wnt1 co-transfected cells, treated 24 h", "protocol": "Primary and downstream promoter-luciferase reporter assays were used to explore the interaction between IBS and β-catenin-driven gene expression. Cells were co-transfected with Wntl and promoter-driven luciferase constructs and treated with TAT-IBS for 24 h. […] The ability of IBS to modulate two downstream β-catenin modulated pathways that reduce cell adhesion (ECad) and promote cell cycle progression (E2F) was also examined. […] Motile MDA-MB-231 cells were used to examine the effect of IBS on β-catenin dependent cell migration. IBS slowed malignant cell migration by >60% (FIG. 9d)."}, "PC3 cells [4]": {"tested_on": "PC3 cells", "test": "PC3 cell proliferation after TAT-fusion protein/peptide", "format": "cell-based", "protocol": "as §1"}, "Elf3": {"tested_on": "Elf3", "test": "Elf3-luciferase reporter assay", "format": "cell-based", "conditions": "suppressed by Wnt-1 stimulation", "description": "as §3"}, "[5]": {"tested_on": "human ovarian, pancreatic, and colon cancers", "test": "Tumor growth in tumor bearing PDX-mice", "format": "in vivo, mouse", "description": "as §2"}}, "data": [{"substance": "DKK3: secreted glycoprotein product of the DKK3 locus", "values": [{"measurement": "PC3 cell proliferation", "setting": "PC3 cells [1]", "result": "did not alter the rate of PC3 cell proliferation"}]}, {"substance": "TAT-IBS (DKK3b fused to an N-terminal cell penetrating peptide) (from UniProt Q9UBP4 72-350)", "values": [{"measurement": "nuclear β-catenin level in LiCl-stimulated SOAS-2 and HeLa cells (cell fractionation) (fraction of untreated controls)", "setting": "[2]", "result": 0.33}, {"measurement": "total cell content and distribution of β-catenin (nuclear, cytosolic and microfilament fractions)", "setting": "[2]", "result": 3, "unit": "fold"}]}, {"substance": "TAT-IBS: DKK3b fused to an N-terminal cell penetrating peptide; bacterially expressed, unfolded fusion protein", "values": [{"measurement": "pro-apoptotic levels of cleaved Caspase 3", "setting": "Cleaved Caspase 3", "result": "increased"}, {"measurement": "effects on biology in the mouse", "setting": "[3]", "result": "no effects on any biology in the mouse"}, {"measurement": "Wnt-stimulated cell proliferation", "setting": "HEK293 cells", "result": "completely eliminated"}, {"measurement": "basal cell proliferation", "setting": "HEK293 cells", "result": "without altering basal cell proliferation"}, {"measurement": "NF-κB (p65)-responsive promoter luciferase reporter", "setting": "NF-κB (p65)", "result": "blocks"}, {"measurement": "Wnt stimulated Tcf-luciferase expression", "setting": "β-catenin", "result": "completely arrested"}, {"measurement": "loss of the initial cell population", "setting": "PC3 cells [4]; PC3 cells, after 3 days", "result": "> 75", "unit": "%"}, {"measurement": "PC3 cell proliferation", "setting": "PC3 cells [4]; TAT-fusion protein, measured after 3 days", "result": "arrested proliferation"}, {"measurement": "transcriptional activity of Elf3-luciferase", "setting": "Elf3", "result": "restores transcriptional activity"}, {"measurement": "tumor necrosis", "setting": "[5]; pancreatic, and colon cancers in PDX-mice", "result": "led to tumor necrosis"}, {"measurement": "growth of human cancers in PDX-mice", "setting": "[5]; pancreatic, and colon cancers, bacterially expressed, unfolded protein", "result": "arrested growth"}]}]}
